According to patent US20170224679A1, “Use of CXCR2 Antagonists For The Prevention and/or Treatment of Chemotherapy Induced Peripheral Neuropathy (CIPN)” (GlaxoSmithKline Intellectual Property Development Limited, priority 2014, published 2017):

Key:
CXCR2 receptor [1] = biological target: T1, CXCR2 receptor (Homo sapiens, UniProt P25025); experiment: Human whole blood assay version i) (CD11b, CXCL1 stimulated); assay type: cell-based; set-up: Assay d) measures the cellular functional activity to the native expressed human CXCR2 in whole blood; endogenous in cells; host or cells: human whole blood (neutrophils); conditions: 10 nM CXCL1, neutrophil CD11b, read-out: pIC50 against the CXCR2 receptor (converted)
T1 sequence (P25025 1-360): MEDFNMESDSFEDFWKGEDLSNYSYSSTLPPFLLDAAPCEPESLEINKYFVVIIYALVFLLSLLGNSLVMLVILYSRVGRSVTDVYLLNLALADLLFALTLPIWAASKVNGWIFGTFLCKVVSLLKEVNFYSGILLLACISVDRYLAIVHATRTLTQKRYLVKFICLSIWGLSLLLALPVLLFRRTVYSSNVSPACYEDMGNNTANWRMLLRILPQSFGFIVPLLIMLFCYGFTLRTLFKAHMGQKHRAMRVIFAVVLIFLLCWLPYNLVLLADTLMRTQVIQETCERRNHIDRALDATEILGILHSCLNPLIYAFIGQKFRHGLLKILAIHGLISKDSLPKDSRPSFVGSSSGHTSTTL
Experimental: Human blood was obtained from healthy consenting adults by trained medical professionals by venipuncture in a 10 ml syringe containing 225 μI of 0.25 M EDTA and filling with 7 ml of blood (maintained at 37° C. throughout the CXCL1 stimulation).
The test compounds were dissolved in 100% DMSO to a concentration of 10 mM and diluted to 12× the assay concentration in 1.2% DMSO (final concentration DMSO of 0.1%).
Assay: 100 μI of whole blood was added to assay tubes or 96 well U-bottom clear plates containing 10 μI of 1.2% DMSO (assay concentration of 0.1%) or 10 μI of compound dissolved in 1.2% DMSO (assay concentration range of 0.1 μM to 10 μM), then incubated for 10 minutes at 37° C., followed by addition of 10 μI of 0.1% BSA in DPBS (negative controls) or 10 μI of 120 nM CXCL1 (GROα, Prepro Tech, Inc) dissolved in 0.1% BSA in DPBS (assay concentration of 10 nM which is the EC80 for CXCL1) and incubated at 37° C. for an additional 10 min with gentle agitation before being placed on ice and assay terminated by adding 250 μI of CellFix or 250 μI of 3.7% v/v paraformaldehyde (BD Biosciences). […] Before being analyzed using an LSR flow cytometer (Becton-Dickinson) or FACS Canto II, cells were stained for 10 minutes at 4° C. with 10 μI of LDS-751 (Molecular Probes), a nucleic acid stain, allowing a cytometer threshold setting to exclude red blood cells. […]

HCT116 cell line = experiment: Colorectal cancer cell line proliferation assay, HCT116; assay type: cell-based; conditions: HCT116, compound alone 8.5 μM, non-significant
Experimental: Cell proliferation assay: Cells were seeded in 96-well plates (Costar) at different cell densities: HCT116, 500 cells per well; Caco-2, 1000 cells per well. Total volume of the medium was 90 μl per well. Cells were incubated for 24 hours at 37° C. and 5% CO2 incubator. […] The final concentration of the Compound of Formula (A) was 8.5 μM. […] The cell proliferation rate was measured by adding 100 μl of CellTiter-Glo™ (Promega) according to the manufacturer's instructions. After 10 minutes of incubation, the cell lysates were transferred into OptiPlate-384 well, the luminescence was recorded by BioTek Synergy™ 4 Hybrid Microplate Reader with Gen5 software. All data points were generated in five replicates. Three independent experiments were performed. […] All data were presented as the mean±standard error of the mean determined from three independent experiments.

Sprague-Dawley rats [2] = experiment: CXCR2 antagonist effect on oxaliplatin-induced acute sensory injury rat (PWT, von Frey); assay type: in vivo
Experimental: If the animal withdrew or lifted the paw upon stimulation, then a hair with force immediately lower than that tested was used. If no response was observed, then a hair with force immediately higher was tested.

CXCR2 receptor [3] = biological target: T1, CXCR2 receptor; experiment: CXCR2 Tango assay; assay type: cell-based; set-up: fused on or other part: TEV protease cleavage site and Gal4-VP16 transcription factor fused to the receptor (Invitrogen Tango construct); no part of the key; conditions: Tango reporter gene, 80 nM hCXCL1; read-out: pIC50 against the CXCR2 receptor (converted)
From the text: The assay measures ligand-induced activation of the receptor CXCR2 in a stable cell line containing the recombinant human CXCR2 linked to a TEV protease site and a Gal4-VP16 transcription factor (Invitrogen). Ligand binding to the receptor results in the recruitment of arrestin proteins (tagged with protease) to the receptor and triggers the release of a tethered transcription factor. The transcription factor enters the nucleus and activates the transcription of the reporter gene. The ability of a compound to inhibit CXCR2 activation is indirectly assessed by measuring the reporter gene activity.
A vial of cryopreserved cells was removed from liquid nitrogen and rapidly thawed in a water bath at 37° C. with gentle agitation. The cell contents were collected and resuspended in Assay Medium at a density of ˜200,000 cells/ml. All test compounds were dissolved in DMSO at a concentration of 10 mM and then were serially diluted to generate a 10-point dose response curve into 384-well assay plate (Greiner 781090) using an Echo (Labcyte) concentration-response program (50 nl/well). The cell-free, un-stimulated and positive controls were loaded with 50 nl/well pure DMSO to ensure that the DMSO concentration was constant across the plate for all assays. Using Multi-drop Combi (Thermo) with standard cassette, 50 μl of Assay Medium was added to cell-free control wells in compound-containing assay plate; 50 μl of the cell suspension without hCXCL1 (a CXCR2 ligand) was added to un-stimulated control wells (10,000 cells per well); and 50 μl of the cell suspension with 80 nM hCXCL1 was added to the rest of wells of the assay plate (10,000 cells per well). The cells were incubated overnight at 37° C./5% CO2·10 μl of 6× substrate mixture (LiveBLAzer™-FRET B/G substrate (CCF4-AM) Cat #K1096 from Invitrogen, Inc.) was added to each well using Multi-drop Combi (Thermo) with small-tube cassette and the plate was incubated at room temperature for 2 h in the dark. The plate was then read on EnVision using one excitation channel (409 nm) and two emission channels (460 nm and 530 nm).
The blue/green emission ratio (460 nm/530 nm) was calculated for each well by dividing the background-subtracted Blue emission values by the background-subtracted Green emission values. The dose response curve was based on sigmoidal dose-response model. All ratio data was normalized based upon the maximum emission ratio of positive control (hCXCL1) and minimum emission ratio of negative control (DMSO) on each plate.

Sprague-Dawley rats [4] = experiment: CXCR2 antagonist effect on repeat dosing oxaliplatin induced sensory injury rat; conditions: oxaliplatin-treated rats, 20 mg/kg p.o. b.i.d. 4 weeks
Experimental: Male Sprague-Dawley rats (109-167 g, ˜5weeks old) were housed in cages in groups of three in a controlled environment of constant temperature and moisture (temperature: 25±3° C., light: dark cycle of 12:12 hours) with food (25 g/rat/day of LabDiet 5053) and water available ad libitum.
MC (Sigma Cat #423238) was made up in water at 1% (w/v) (1 g per 100 mL water) and left on a stirrer until completely dissolved. The formulation was prepared every 6-8 days in 400-700 mL each time and stored at 4° C. protected from light. The dosing volume used was 10 mL/kg to give a 20 mg/kg p.o. dose. Vehicle treated animals were dosed b.i.d. with 1% MC w/v at 10 mL/kg p.o.
A fresh solution was prepared before every injection. Control vehicle animals were treated with 5% w/v Gluclose at 5ml/kg. Glucose (Sigma Aldrich Cat #G7021) was made up in milli-Q water at 5% (w/v) (5 g per 100 mL water) and left on a stirrer until completely dissolved.
Body weight tracking: The bodyweights of rats were measured twice a week for 4 weeks on Days 1, 3, 9, 11, 16, 18, 23, and 25. […]
Rats were anesthetized with chloral hydrate (350 mg/kg, 3.5 mL/kg, i.p.). […] The right sciatic nerve was carefully identified and conduction velocity was measured by recording action potentials from an electrode placed between the second and third digits as described by Jamieson et al., Br. J. Cancer, 88(12):1942-7 (2003), and electrically stimulating the nerve (5V, 0.5 s, single-wave pulses) via a platinum wire electrode at the sciatic notch and ankle. The length between the sciatic notch and ankle was measured.
The nerve conduction velocity was calculated as the length between sciatic notch and ankle divided by the difference between the time latencies at the stimulation sites [latency (sciatic notch)−latency (ankle)].
A 1 cm segment of the left sciatic nerve (distal end) was located and carefully dissected out. […] The ratio of inner area over entire area of nerve fibers of sciatic nerves was then calculated as an indicator of thickness of myelin sheath of nerves.

CXCR2 receptor [5] = biological target: T1, CXCR2 receptor; experiment: GPCR Arrestin Assay (DiscoveRX PathHunter), CXCR2; assay type: cell-based; set-up: host or cells: PathHunter CHO cell lines
Experimental: Certain compounds of the invention were also tested by DiscoveRX Corporation (42501 Albrae Street, Fremont, Calif. 94538, United States) in their GPCR Arrestin Assay to determine their activity against a panel of receptors including CXCR2 and CXCR1. PathHunter CHO cell lines were expanded from freezer stocks according to standard procedures. Cells were seeded in a total volume of 20 μL into white walled, 384-well microplates and incubated at 37° C. for the appropriate time prior to testing. The cells were pre-incubated with antagonist followed by agonist challenge at the EC80 concentration. Intermediate dilution of sample stocks was performed to generate 5× sample in assay buffer. 5 μL of 5× sample was added to cells and incubated at 37° C. or room temperature for 30 minutes. […] Assay signal was generated through a single addition of 12.5 or 15 μL (50% v/v) of PathHunter Detection reagent cocktail, followed by one hour incubation at room temperature. Microplates were read following signal generation with a PerkinElmer Envision™ instrument for chemiluminescent signal detection. Compound activity was analyzed using CBIS data analysis suite (ChemInnovation, Calif.).

Row | Structure (SMILES) | IC50 (CXCR2 receptor [1]) [nM] | decrease of basal proliferation (HCT116 cell line) [%] | oxaliplatin induced mechanical allodynia (PWT) vs oxaliplatin and vehicle group (Sprague-Dawley rats [2]; Day 3, 5, 20 and 50 mg/kg p.o. b.i.d. from Day -1) | oxaliplatin induced mechanical allodynia (PWT) vs oxaliplatin and vehicle group (Sprague-Dawley rats [2]; Day 7, 20 and 50 mg/kg p.o. b.i.d. only) | IC50 (CXCR2 receptor [3]) [nM] | sciatic nerve conduction velocity between sciatic notch and ankle (Sprague-Dawley rats [4]; Day 29-31, mean±SEM) [m/s] | ratio of inner area over entire area of the nerve fibers (myelin sheath thickness) (Sprague-Dawley rats [4]; left sciatic nerve, mean±SEM) | selectivity for CXCR2 over CXCR1 (CXCR2 receptor [5]; GPCR Arrestin Assay e)) [fold] | IC50 (CXCR2 receptor [5]; PathHunter CHO cells, agonist at EC80, read-out: pIC50 against the CXCR2 receptor (converted)) [nM]
1 | O=C(Nc1ccc(Cl)c(S(=O)(=O)N2CCNCC2)c1O)Nc1cccc(F)c1Cl [Compound of Formula (A), 1-(4-chloro-2-hydroxy-3-(piperazin-1-ylsulfonyl)phenyl)-3-(2-chloro-3-fluorophenyl)urea] | 2000 | 8.9±0.7 | reduced the mechanical allodynia | robust reduction of the mechanical allodynia | 0.631 | 40.83±1.45 | 0.17±0.01 | – | –
2 | CN1CCC(C)(S(=O)(=O)c2c(Cl)ccc(NC(=O)Nc3cccc(F)c3Cl)c2O)CC1 [Compound of Formula (D), 1-(4-chloro-3-((1,4-dimethylpiperidin-4-yl)sulfonyl)-2-hydroxyphenyl)-3-(2-chloro-3-fluorophenyl)urea] | 3980 | – | – | – | 1.26 | – | – | 29 | 100
